The results in this text go back to patent publication US20240307409A1, “ARGININE METHYLTRANSFERASE INHIBITOR AND USE THEREOF” (Cytosinlab Therapeutics Co., Ltd., priority 2021, published 2024).

The target of one assay is PRMT1 (Homo sapiens, UniProt Q99873). The experiment in a line: PRMT1 enzyme activity test. Format: biochemical. To be noted: 0.5 nM PRMT1, 3H-SAM, peptide. The method, boiled down:
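Radiometric methylation assay: 0.5 nM PRMT1 preincubated 15 min at room temperature with compound (10-point 3-fold series, 1% DMSO) in pH 8.0 Tris buffer with Tween-20 and DTT. 0.25 uM ³H-SAM and 0.1 uM biotinylated peptide then reacted 120 min. Product captured on streptavidin FlashPlate and counted; IC50 from four-parameter fit of % inhibition.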

The test system of a further assay is Toledo cells. The experiment in a line: Toledo cell proliferation inhibition assay. Format: cell-based. As to conditions: Homo sapiens, Toledo, 144 h; six-day assay, CellTiter-Glo. The method, boiled down:
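Toledo cells seeded at 2000 cells/well in RPMI 1640 + 10% FBS and incubated with compound for six days at 37° C, 5% CO2. Viability was then read by CellTiter-Glo luminescence after 30 min orbital mixing.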

The next assay concerns MMA in RKO cells. The experiment in a line: RKO In Cell Western assay (MMA primary antibody). Format: cell-based. To be noted: Homo sapiens, 72 hours, read-out: RKO ICW_EC30. As for the experimental part:
RKO was seeded at a concentration of 20,000 cells/ml into a polylysine-coated 96-well plate (Corning #3599), with 2,000 cells per well and 100 μL of culture mediumper well. 500 nL of compound was added to the 96-well plate. 3) The 96-well plate was incubated in a 37° C., 5% CO2 incubator for 72 hours. After three days, the 96-well plate was taken from the incubator, 100 μL of 8% paraformaldehyde solution was added to each well, and the plate was placed at room temperature for 15 min. After 15 min, the liquid in the plate was shaken out and the plate was washed three times with phosphate buffer (1*PBS). The liquid in the plate was shaken out and 200 μL of membrane-breaking buffer (0.1% (v/v) Tween-20 in PBS) was added and the plate was incubated on a shaker for 30 min. After half an hour, the liquid in the plate was shaken out, and blocking buffer was added and the plate was incubated for two hours at room temperature with shaking. After that, the liquid in the plate was shaken off, and the blocking solution containing primary antibody (MMA primary antibody, CST #8711S, 1:1000 v/v) was added to the 96-well plate and the plate was incubated at 4° C. overnight with shaking. The next day, the plate was washed three times with washing solution (0.05% (v/v) Tween-20 in PBS), and a blocking solution containing secondary antibody (goat anti-rabbit IgG (H+L) Invitrogen #31460, 1:10,000 v/v) was added and the plate was incubated for two hours at room temperature. Afterwards, the 96-well plate was washed four times with washing solution. The TMB mixture was added to the 96-well plate and then the plate was incubated for 15 minutes at room temperature with shaking. After that, the reaction terminating solution was added, and the value was read at OD450 nm using an microplate reader. The plate was washed three times with washing solution, and 50 μL of janusgreen staining solution was added, and the plate was incubated for 15 minutes at room temperature with shaking. The reaction was washed ten times with water until no color residue was left. 200 μL of 0.5 M hydrochloric acid solution was added to each well and the plate was incubated for 10 min at room temperature. The value was read at OD595 nm using Flexstation.
Firstly, the ratio OD450/OD595 was calculated for each well
Each plate had six DMSO negative control groups (ZPE) and six 10 μM positive control groups (HPE), and the average of the control group ratios was used to determine the percentage of activation for each test well. The compounds to be tested were triple diluted with DMSO for a total of 8 concentration points with a starting concentration of 5 μM. The equation for calculating the activation percentage of each test well was: […]

Chain of PRMT1 (Q99873 whole entry): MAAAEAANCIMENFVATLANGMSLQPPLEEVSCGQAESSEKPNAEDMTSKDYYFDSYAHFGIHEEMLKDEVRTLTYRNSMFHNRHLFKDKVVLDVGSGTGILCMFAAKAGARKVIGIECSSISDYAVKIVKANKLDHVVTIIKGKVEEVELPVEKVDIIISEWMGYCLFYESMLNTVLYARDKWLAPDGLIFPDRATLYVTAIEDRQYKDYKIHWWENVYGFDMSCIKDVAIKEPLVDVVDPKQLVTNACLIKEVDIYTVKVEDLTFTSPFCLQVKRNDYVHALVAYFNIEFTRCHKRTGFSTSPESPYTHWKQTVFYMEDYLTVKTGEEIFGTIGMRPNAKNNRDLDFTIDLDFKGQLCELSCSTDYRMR

As for `CNCCN(C)Cc1cc(F)ccc1C1CCc2ccc(C(F)(F)F)cc2CC1` (centres unmarked) [P001], the IC50 against PRMT1 was < 0.05 µM; with Toledo cells, < 1 µM. In addition, the EC30 in the assay with MMA in RKO cells fell in the range of 0.25 to 2.5 µM.
In the case of `CNCCN(C)Cc1ccc(F)cc1[C@H]1CC[C@H](c2cccc(C)c2)CC1` [P003], the IC50 at PRMT1 is < 0.05 µM; with Toledo cells, < 1 µM. The EC30 with MMA in RKO cells is < 0.25 µM.
The corresponding values for `CNCCN(C)Cc1cc(F)ccc1[C@H]1CC[C@H](c2cccc(C)c2)CC1` [P005] are < 0.05 µM, < 1 µM and 0.25 to 2.5 µM.
As to `CNCCN(C)Cc1ccc(F)cc1C1CCc2cc(F)c(F)cc2CC1` [P007], the IC50 on PRMT1 is < 0.05 µM; with Toledo cells, < 1 µM. For the same compound, in the assay with MMA in RKO cells, the EC30 is < 0.25 µM.
The corresponding values for `CNCCN(C)Cc1ccc(F)cc1C1CCc2cc(F)cc(F)c2CC1` (centres unmarked) [P008] are < 0.05 µM, < 1 µM and 0.25 to 2.5 µM.
As to `CNCCN(C)Cc1cc(F)ccc1C1CCc2cc(F)c(F)cc2CC1` [P009], the figures for the IC50 at PRMT1 and in the assay with Toledo cells were < 0.05 µM and < 1 µM, respectively. Further, the EC30 with MMA in RKO cells is 0.25 to 2.5 µM.
With `CC[C@H]1CC[C@@H](c2ccccc2CN(C)CCNC)CC1` [P014], the IC50 against PRMT1 was < 0.05 µM; in the assay on Toledo cells it was < 1 µM. Also, in the assay on MMA in RKO cells, the EC30 was in the range of 0.25 to 2.5 µM.
For `CCC1CCC(c2ccccc2CN(C)CCNC)CC1` (centres unmarked) [P015], the results for the IC50 at PRMT1 and in the assay on Toledo cells were < 0.05 µM and < 1 µM, respectively. Further, the EC30 in the assay with MMA in RKO cells lay within 0.25 to 2.5 µM.
Turning to `CNCCN(C)Cc1ccc(F)cc1C1CCN(c2cccc(C)c2)CC1` [P021], the IC50 on PRMT1 was < 0.05 µM; with Toledo cells it was < 1 µM. Further, in the assay on MMA in RKO cells, the EC30 is < 0.25 µM.
As to `CNCCN(C)Cc1ccccc1C1CCN(c2cccc(C)c2)CC1` [P022], the IC50 at PRMT1 is < 0.05 µM; with Toledo cells it was < 1 µM. Also, the EC30 with MMA in RKO cells is < 0.25 µM.
As to `CNCCN(C)Cc1ccccc1C1CCC2(CC1)CC(C)(C)CO2` (centres unmarked) [P039], the IC50 on PRMT1 is < 0.05 µM; with Toledo cells, < 1 µM. For the same compound, in the assay with MMA in RKO cells, the EC30 lay in the range of 0.25 to 2.5 µM.
The corresponding values for `CNCCN(C)Cc1ncccc1C1CCN(c2cccc(C(C)(C)C)c2)CC1` [P044] are < 0.05 µM, < 1 µM and 0.25 to 2.5 µM.
With `CCOC[C@H]1CC[C@H](c2ccccc2CN(C)CCNC)CC1` [P049], the IC50 against PRMT1 was < 0.05 µM; in the assay on Toledo cells, < 1 µM. The EC30 in the assay with MMA in RKO cells was < 0.25 µM.
Take `CNCCN(C)Cc1ccccc1[C@H]1CC[C@@]2(CCCCO2)CC1` [P050]: the values for the IC50 at PRMT1 and in the assay on Toledo cells were < 0.05 µM and < 1 µM, respectively. Moreover, in the assay on MMA in RKO cells, the EC30 was 0.25 to 2.5 µM.
Consider `CNCCN(C)Cc1ccccc1[C@H]1CC[C@]2(CCCCO2)CC1` [P051], for which the IC50 is < 0.05 µM at PRMT1 and < 1 µM with Toledo cells. In the assay with MMA in RKO cells, the EC30 lay in the range of 0.25 to 2.5 µM.
The like results for `CNCCN(C)Cc1ccccc1[C@H]1CC[C@]2(CCCOC2)CC1` [P052] were, in that order, < 0.05 µM, < 1 µM and 0.25 to 2.5 µM.
In the case of `CNCCN(C)Cc1ccccc1[C@H]1CC[C@@]2(CCCOC2)CC1` [P053], the IC50 on PRMT1 is < 0.05 µM; in the assay with Toledo cells, < 1 µM. For the same compound, in the assay with MMA in RKO cells, the EC30 was 0.25 to 2.5 µM.
For the compound `CCOCC1CC=C(c2ccccc2CN(C)CCNC)CC1` (centres unmarked) [P054], the IC50 at PRMT1 was < 0.05 µM; in the assay on Toledo cells, < 1 µM. Further, in the assay with MMA in RKO cells, the EC30 was < 0.25 µM.
Regarding `CNCCN(C)Cc1ccccc1[C@H]1CC[C@H](OC(C)C)CC1` [P056], the IC50 against PRMT1 is < 0.05 µM; with Toledo cells, < 1 µM. In addition, in the assay on MMA in RKO cells, the EC30 was 0.25 to 2.5 µM.
As to `CNCCN(C)Cc1ccccc1[C@H]1CC[C@@H](OC(C)C)CC1` [P057], the results for the IC50 at PRMT1 and with Toledo cells were < 0.05 µM and < 1 µM, respectively. In addition, the EC30 in the assay with MMA in RKO cells is 0.25 to 2.5 µM.
The like results for `CNCCN(C)Cc1ccccc1C1CCN(c2ccc(C(F)(F)F)cc2)CC1` [P069] were, in that order, < 0.05 µM, < 1 µM and 0.25 to 2.5 µM.
For `CNCCN(C)Cc1ncccc1C1CCN(CCc2ccccc2)CC1` [P074], the IC50 against PRMT1 is < 0.05 µM; in the assay with Toledo cells, < 1 µM. The EC30 in the assay on MMA in RKO cells is 0.25 to 2.5 µM.
For `CNCCN(C)Cc1ncccc1C1CCc2ccccc2CC1` [P075], the results for the IC50 at PRMT1 and in the assay with Toledo cells were < 0.05 µM and < 1 µM, respectively. Besides, the EC30 with MMA in RKO cells fell in the range of 0.25 to 2.5 µM.
Consider `CNCCN(C)Cc1ncccc1C1CCN(c2cccc(C(F)F)c2)CC1` [P078], for which the IC50 against PRMT1 was < 0.05 µM; in the assay with Toledo cells, < 1 µM. In the assay with MMA in RKO cells, the EC30 was < 0.25 µM.
Consider `CCOCC1(COCC)CCC(c2nc(N)ccc2CN(C)CCNC)CC1` [P293, N1-((6-amino-2-(4,4-bis(ethoxymethyl)cyclohexyl)pyridin-3-yl)methyl)-N1,N2-dimethyle thane-1,2-diamine], for which the concentration for half-maximal inhibition (IC50) was 0.05 to 0.5 µM on PRMT1 and < 1 µM in the assay with Toledo cells.
As for `CNCCN(C)Cc1ncccc1C1CCN(c2cccc(C(N)=O)c2)CC1` [P297], the IC50 on PRMT1 is < 0.05 µM; in the assay with Toledo cells, ≥ 5 µM.
The like results for `CNCCN(C)Cc1ncccc1C1CCN(c2ccccc2C(N)=O)CC1` [P298] were, in that order, < 0.05 µM and 1 to 5 µM.
As to `CCC1(C(=O)NC)CCN(c2cccnc2CN(C)CCNC)CC1` [P300], the values for the IC50 against PRMT1 and in the assay on Toledo cells were 0.05 to 0.5 µM and ≥ 5 µM, respectively.
With `CCOC(=O)C1CCN(c2cccnc2CN(C)CCNC)CC1` [P301], the figures for the IC50 against PRMT1 and in the assay on Toledo cells were < 0.05 µM and 1 to 5 µM, respectively.
For `CNCCN(C)Cc1ncccc1N1CCC(CC(=O)OC)CC1` [P302], the 50% inhibitory concentration (IC50) was < 0.05 µM at PRMT1 and 1 to 5 µM in the assay on Toledo cells.
As for `CNCCN(C)Cc1ncccc1N1CCC(=CC(=O)OC)CC1` [P303], the IC50 at PRMT1 was < 0.05 µM; in the assay with Toledo cells, 1 to 5 µM.
Consider `CNCCN(C)Cc1ncccc1N1CCc2nc(OC)cc(OC)c2CC1` [P304], for which the values for the IC50 against PRMT1 and in the assay on Toledo cells were < 0.05 µM and 1 to 5 µM, respectively.
Consider `CNCCN(C)Cc1ncccc1N1CCC(COc2cnc(C)nc2)CC1` [P305], for which the IC50 against PRMT1 was < 0.05 µM; in the assay with Toledo cells, < 1 µM.
Turning to `CNCCN(C)Cc1ncccc1N1CCC(COc2ccnc(C)n2)CC1` [P306], the IC50 on PRMT1 was in the range of 0.05 to 0.5 µM; in the assay with Toledo cells, 1 to 5 µM.
For the compound `CNCCN(C)Cc1ncccc1N1CCC(Oc2cnc(C)nc2)CC1` [P313], the figures for the IC50 against PRMT1 and with Toledo cells were < 0.05 µM and 1 to 5 µM, respectively.
With `CNCCN(C)Cc1ncccc1N1CCC(Oc2ccnc(C)n2)CC1` [P314], the values for the IC50 at PRMT1 and with Toledo cells were < 0.05 µM and ≥ 5 µM, respectively.
For `CCC1(C(=O)O)CCN(c2cccnc2CN(C)CCNC)CC1` [P315], the IC50 against PRMT1 is ≥ 0.5 µM; in the assay with Toledo cells, ≥ 5 µM.
The corresponding values for `CNCCN(C)Cc1ncccc1C1CCN(c2cnc(C#N)nc2)CC1` [P318] are < 0.05 µM and ≥ 5 µM.
The like results for `CNCCN(C)Cc1ncccc1N1CCC(Nc2ccncn2)CC1` [P319] were, in that order, < 0.05 µM and ≥ 5 µM.
In the case of `CNCCN(C)Cc1ncccc1N1CCc2cnc(NC)nc2CC1` [P320], the IC50 was < 0.05 µM on PRMT1 and ≥ 5 µM in the assay with Toledo cells.
Take `CNCCN(C)Cc1ncccc1C1CCN(c2cc(C)nc(N)n2)CC1` [P321]: the IC50 is < 0.05 µM on PRMT1 and 1 to 5 µM with Toledo cells.
With `CNCCN(C)Cc1ncccc1C1CCN(c2ccnc(N)n2)CC1` [P326], the IC50 is < 0.05 µM against PRMT1 and 1 to 5 µM in the assay on Toledo cells.
The like results for `CNCCN(C)Cc1ncccc1N1CCc2nc(SC)nc(O)c2CC1` [P329] were, in that order, 0.05 to 0.5 µM and ≥ 5 µM.
